Laboratory results reported in ChEMBL document CHEMBL3046710, “Synthesis and bioactivity evaluation of novel spiromesifen derivatives” (2012).
In brackets after ≈: the same amount, converted by molar mass. Activity calls are given as the source filed them. The calls are words filed in the database; no cut-off is given here.

Legend:
[1] = tested on: Aphis fabae; assay: Insecticidal activity against third-instar nymph of Aphis fabae (black bean aphids) assessed as mortality after 72 hr by spray method; format: functional; details: for LC50: Aphis fabae, 72 h
[2] = tested on: Mythimna separata; assay: Insecticidal activity against third-instar larvae of Mythimna separata (Oriental armyworm) assessed as mortality after 72 hr by spray method; format: functional
[3] = tested on: Tetranychus cinnabarinus; assay: Acaricidal activity against adult Tetranychus cinnabarinus (carmine spider mite) assessed as mortality after 72 hr by immersion method; format: functional
[4] = tested on: Mythimna separata; assay: Insecticidal activity against third-instar larvae of Mythimna separata (Oriental armyworm) assessed as mortality at 25 mg/L after 72 hr by spray method; format: functional, organism-based
[5] = tested on: Mythimna separata; assay: Insecticidal activity against third-instar larvae of Mythimna separata (Oriental armyworm) assessed as mortality at 100 mg/L after 72 hr by spray method; format: functional, organism-based
[6] = tested on: Aphis fabae; assay: Insecticidal activity against third-instar nymph of Aphis fabae (black bean aphids) assessed as mortality at 4 mg/L after 72 hr by spray method; format: functional
[7] = tested on: Mythimna separata; assay: Insecticidal activity against third-instar larvae of Mythimna separata (Oriental armyworm) assessed as mortality at 1000 mg/L after 72 hr by spray method; format: functional
[8] = tested on: Tetranychus cinnabarinus; assay: Ovolarvicidal activity against […] Tetranychus cinnabarinus (carmine spider mite) assessed as reduction in hatched eggs measured 6 days after hatching by immersion method; format: functional; details: for LC50: Tetranychus cinnabarinus, 144 h
[9] = tested on: Tetranychus cinnabarinus; assay: Acaricidal activity against adult Tetranychus cinnabarinus (carmine spider mite) assessed as mortality at 6.25 mg/L after 72 hr by immersion method; format: functional
[10] = tested on: Tetranychus cinnabarinus; assay: Acaricidal activity against adult Tetranychus cinnabarinus (carmine spider mite) assessed as mortality at 600 mg/L after 72 hr by immersion method; format: functional

SMILES | LC50 [1] [µg/mL] | LC50 [2] [µg/mL] | LC50 [3] [µg/mL] | other results
Cc1cc(C)c(C2=C(C(=O)CC(C)(C)C)C3(CCCC3)OC2=O)c(C)c1 | 5 (≈ 14.1 µM) | 101 (≈ 285 µM) | 26 (≈ 73.3 µM) | –
Cc1ccc(C(=O)C2=C(c3c(C)cc(C)cc3C)C(=O)OC23CCCC3)cc1 | > 500 | > 1000 | > 600 | –
Cc1cc(C)c(C2=C(C(=O)/C=C/c3ccccc3)C3(CCCC3)OC2=O)c(C)c1 | 5 (≈ 12.9 µM) | 26 (≈ 67.3 µM) | 101 (≈ 261 µM) | Activity [4]: inactive; Activity [5]: Active
CCC(C)(C)C(=O)OC1=C(c2ccc(Cl)cc2Cl)C(=O)OC12CCCCC2 [SPIRODICLOFEN] | – | – | – | mortality at 4 µg/mL [6]: 0%
Cc1cc(C)c(C2=C(C(=O)C3C(C=C(Cl)Cl)C3(C)C)C3(CCCC3)OC2=O)c(C)c1 (centres undefined) | 100 (≈ 224 µM) | 401 (≈ 896 µM) | > 600 | –
CCCCC(=O)C1=C(c2c(C)cc(C)cc2C)C(=O)OC12CCCC2 | 1 (≈ 2.94 µM) | 26 (≈ 76.4 µM) | 6.26 (≈ 18.4 µM) | mortality at 4 µg/mL [6]: 55.5%; mortality at 1000 µg/mL [7]: 100%
CCC(C)(C)C(=O)C1=C(c2c(C)cc(C)cc2C)C(=O)OC12CCCC2 | 21 (≈ 59.2 µM) | 101 (≈ 285 µM) | 6.26 (≈ 17.7 µM) | –
CCCCCC(=O)C1=C(c2c(C)cc(C)cc2C)C(=O)OC12CCCC2 | 1 (≈ 2.82 µM) | 26 (≈ 73.3 µM) | 6.26 (≈ 17.7 µM) | Activity [4]: inactive; mortality at 4 µg/mL [6]: 95.6%; mortality at 1000 µg/mL [7]: 100%; LC90 [1]: 21.77 µg/mL (≈ 61.4 µM); LC90 [8]: 56.08 µg/mL (≈ 158 µM); LC50 [8]: 11.8 µg/mL (≈ 33.3 µM); Activity [5]: Active
COc1ccc(C(=O)C2=C(c3c(C)cc(C)cc3C)C(=O)OC23CCCC3)cc1 | 21 (≈ 53.8 µM) | 26 (≈ 66.6 µM) | 1 (≈ 2.56 µM) | mortality at 6.25 µg/mL [9]: 55.2%
Cc1cc(C)c(C2=C(C(=O)C(c3ccc(Cl)cc3)C(C)C)C3(CCCC3)OC2=O)c(C)c1 (centres undefined) | 101 (≈ 224 µM) | 401 (≈ 889 µM) | 101 (≈ 224 µM) | –
CCCCCCC(=O)C1=C(c2c(C)cc(C)cc2C)C(=O)OC12CCCC2 | 5 (≈ 13.6 µM) | 101 (≈ 274 µM) | 26 (≈ 70.6 µM) | –
CCc1c(C)cc(OC2=C(c3c(C)cc(C)cc3C)C(=O)OC23CCCC3)cc1C | > 500 | > 1000 | > 600 | –
C=CC(=O)C1=C(c2c(C)cc(C)cc2C)C(=O)OC12CCCC2 | 5 (≈ 16.1 µM) | 26 (≈ 83.8 µM) | 101 (≈ 325 µM) | –
CO/N=C(/C(=O)C1=C(c2c(C)cc(C)cc2C)C(=O)OC12CCCC2)c1ccccc1 | 21 (≈ 50.3 µM) | 26 (≈ 62.3 µM) | 26 (≈ 62.3 µM) | –
CCOC(=O)OC1=C(c2cc(C)ccc2C)C(=O)N[C@]12CC[C@@H](OC)CC2 [SPIROTETRAMAT] | 5.06 (≈ 13.5 µM) | – | – | mortality at 4 µg/mL [6]: 37.9%; LC90 [1]: 13.56 µg/mL (≈ 36.3 µM)
COC1=C(c2c(C)cc(C)cc2C)C(=O)OC12CCCC2 | > 500 | > 1000 | > 600 | –
Cc1cc(C)c(C2=C(OC(=O)CC(C)(C)C)C3(CCCC3)OC2=O)c(C)c1 [SPIROMESIFEN] | 5 (≈ 13.5 µM) | 101 (≈ 273 µM) | 6.26 (≈ 16.9 µM) | mortality at 4 µg/mL [6]: 10.9%; LC90 [8]: 31.07 µg/mL (≈ 83.9 µM); LC50 [8]: 4.32 µg/mL (≈ 11.7 µM)
CCC(=O)C1=C(c2c(C)cc(C)cc2C)C(=O)OC12CCCC2 | 21 (≈ 67.2 µM) | 101 (≈ 323 µM) | 6.26 (≈ 20 µM) | –
C/C=C/C(=O)C1=C(c2c(C)cc(C)cc2C)C(=O)OC12CCCC2 | 21 (≈ 64.7 µM) | 101 (≈ 311 µM) | 6.26 (≈ 19.3 µM) | –
Cc1cc(C)c(C2=C(C(=O)c3ccccc3Cl)C3(CCCC3)OC2=O)c(C)c1 | 5 (≈ 12.7 µM) | 26 (≈ 65.8 µM) | > 600 | Activity [4]: inactive; Activity [5]: Active
Cc1cc(C)c(C2=C(C(=O)c3ccccc3C)C3(CCCC3)OC2=O)c(C)c1 | 5 (≈ 13.4 µM) | 26 (≈ 69.4 µM) | 101 (≈ 270 µM) | –
CCOC1=C(c2c(C)cc(C)cc2C)C(=O)OC12CCCC2 | > 500 | > 1000 | > 600 | –
Cc1cc(C)c(C2=C(C(=O)c3ccc(F)cc3)C3(CCCC3)OC2=O)c(C)c1 | 21 (≈ 55.5 µM) | 101 (≈ 267 µM) | 101 (≈ 267 µM) | –
CCCC(=O)C1=C(c2c(C)cc(C)cc2C)C(=O)OC12CCCC2 | 5 (≈ 15.3 µM) | 26 (≈ 79.6 µM) | 6.26 (≈ 19.2 µM) | mortality at 1000 µg/mL [7]: 100%; mortality at 600 µg/mL [10]: 96.6%
